The test system of data set [1] is recombinant NL4-3 virus (nef section replaced with Renilla luciferase gene) in MT-2 cells. Briefly: HIV cell culture assay (antiviral activity, luciferase readout). The following applies: serial dilutions of compound. Type of data set: cell-based. Summed up: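 EC50 was derived by median-effect curve fitting of luciferase activity. The signal comes from MT-2 cells infected for 4–5 days with 293T-produced NL4-3 reporter virus, nef partly replaced by Renilla luciferase, in the presence of serially diluted compound.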

The nature of data set [2]: Compound cytotoxicity, XTT-based colorimetric assay. Type of data set: cell-based. The settings on record: human, uninfected MT2 cells, day 4, XTT. The method in brief:
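Run under the antiviral-assay protocol but without virus. Viability was read on day 4 and CC50 values were derived from the readout.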
For orientation: Formazan colour is commonly taken as a measure of viable cells.

Setting [3] is: Renilla, NL43, MT-2 cells infected for 4-5 days with recombinant NL4-3 Renilla luciferase virus.

In general, EC50 refers to the midpoint of the concentration-response curve. What is called CC50 is the concentration giving 50% cytotoxicity. In the case of `Cn1nc(NS(C)(=O)=O)c2c(Cl)ccc(-n3c([C@H](Cc4cc(F)cc(F)c4)NC(=O)Cn4nc(C(F)F)c5c4C(F)(F)[C@@H]4C[C@H]54)nc4cc(-c5ccc(Cl)cc5)ccc4c3=O)c21` (atropisomer, axis not shown; (aR)) [Example 51, N-((S)-1-(3-(4-chloro-1-methyl-3-(methylsulfonamido)-1H-indazol-7-yl)-7-(4-chlorophenyl)-4-oxo-3,4-dihydroquinazolin-2-yl)-2-(3,5-difluorophenyl)ethyl)-2-((3bS,4aR)-3-(difluoromethyl)-5,5-difluoro-3b,4,4a,5-tetrahydro-1H-cyclopropa[3,4]cyclopenta[1,2-c]pyrazol-1-yl)acetamide], in data set [1] (setting [3]), the EC50 came to 3.3 nM. For the same compound, the CC50 at 4 day in data set [2] is over 1000 nM.

Take `Cc1cc(C(F)F)nn1CC(=O)N[C@@H](Cc1cc(F)cc(F)c1)c1nc2cc(-c3ccccc3F)ccc2c(=O)n1-c1ccc(Cl)c2c(NS(=O)(=O)C3CC3)nn(CC(F)F)c12` [Example 137, (S)-N-(1-(3-(4-chloro-3-(cyclopropanesulfonamido)-1-(2,2-difluoroethyl)-1H-indazol-7-yl)-7-(2-fluorophenyl)-4-oxo-3,4-dihydroquinazolin-2-yl)-2-(3,5-difluorophenyl)ethyl)-2-(3-(difluoromethyl)-5-methyl-1H-pyrazol-1-yl)acetamide]: the half-maximal effective concentration (EC50) in data set [1] (setting [3]) worked out at 8.4 nM. The compound further had a CC50 at 4 day in data set [2] of over 1000 nM.

Turning to `Cn1nc(NS(C)(=O)=O)c2c(Cl)ccc(-n3c([C@H](Cc4cc(F)cc(F)c4)NC(=O)Cn4nc(C(F)F)c5c4C(F)(F)[C@@H]4C[C@H]54)nc4cc(-c5ccc(C(C)(C)C)cc5)ccc4c3=O)c21` [Example 192, N-((S)-1-(7-(4-(tert-butyl)phenyl)-3-(4-chloro-1-methyl-3-(methylsulfonamido)-1H-indazol-7-yl)-4-oxo-3,4-dihydroquinazolin-2-yl)-2-(3,5-difluorophenyl)ethyl)-2-((3bS,4aR)-3-(difluoromethyl)-5,5-difluoro-3b,4,4a,5-tetrahydro-1H-cyclopropa[3,4]cyclopenta[1,2-c]pyrazol-1-yl)acetamide], in data set [1] (setting [3]), the EC50 worked out at 5.1 nM. The CC50 at 4 day in data set [2] is over 1000 nM.

Regarding `Cc1nccnc1-c1ccc2c(=O)n(-c3ccc(Cl)c4c(NS(C)(=O)=O)nn(CC(F)F)c34)c([C@H](Cc3cc(F)cc(F)c3)NC(=O)Cn3nc(C(F)F)c4c3C(F)(F)[C@@H]3C[C@H]43)nc2c1` (atropisomer, axis not shown; (aR)) [Example 125, N-((S)-1-(3-(4-chloro-1-(2,2-difluoroethyl)-3-(methylsulfonamido)-1H-indazol-7-yl)-7-(3-methylpyrazin-2-yl)-4-oxo-3,4-dihydroquinazolin-2-yl)-2-(3,5-difluorophenyl)ethyl)-2-((3bS,4aR)-3-(difluoromethyl)-5,5-difluoro-3b,4,4a,5-tetrahydro-1H-cyclopropa[3,4]cyclopenta[1,2-c]pyrazol-1-yl)acetamide], the half-maximal effective concentration (EC50) in data set [1] (setting [3]) amounted to 0.054 nM. This compound also had a CC50 at 4 day in data set [2] of over 500 nM.

As for `Cn1nc(NS(C)(=O)=O)c2c(Cl)ccc(-n3c([C@H](Cc4cc(F)cc(F)c4)NC(=O)Cn4ccc(C5CC5)n4)nc4cc(-c5ccccc5F)ccc4c3=O)c21` (single isomer, unassigned) [Example 3], the half-maximal effective concentration (EC50) in data set [1] (MT-2 cells infected for 4-5 days with recombinant NL4-3 Renilla luciferase virus) was 63.1 nM. In data set [2], this compound came in with a CC50 at 4 day of over 1000 nM.

On to `COc1cccc(-c2ccc3c(=O)n(-c4ccc(S(=O)(=O)N5CCOCC5)cc4)c([C@H](Cc4cc(F)cc(F)c4)NC(=O)Cn4ccc(C5CC5)n4)nc3c2)n1` [Example 55, (S)-2-(3-cyclopropyl-1H-pyrazol-1-yl)-N-(2-(3,5-difluorophenyl)-1-(7-(6-methoxypyridin-2-yl)-3-(4-(morpholinosulfonyl)phenyl)-4-oxo-3,4-dihydroquinazolin-2-yl)ethyl)acetamide], for which the EC50 in data set [1] (setting [3]) amounted to 8.7 nM. In addition, the CC50 at 4 day in data set [2] is over 1000 nM.

As to `Cc1cc(C)nc(-c2ccc3c(=O)n(-c4ccc(Cl)c5c(NS(C)(=O)=O)nn(C)c45)c([C@H](Cc4cc(F)cc(F)c4)NC(=O)Cn4nc(C(F)(F)F)c5c4C(F)(F)[C@@H]4C[C@H]54)nc3c2)n1` [Example 141, N-((S)-1-(3-(4-chloro-1-methyl-3-(methylsulfonamido)-1H-indazol-7-yl)-7-(4,6-dimethylpyrimidin-2-yl)-4-oxo-3,4-dihydroquinazolin-2-yl)-2-(3,5-difluorophenyl)ethyl)-2-((3bS,4aR)-5,5-difluoro-3-(trifluoromethyl)-3b,4,4a,5-tetrahydro-1H-cyclopropa[3,4]cyclopenta[1,2-c]pyrazol-1-yl)acetamide], the EC50 in data set [1] (setting [3]) is 0.11 nM. In data set [2], this compound had a CC50 at 4 day of over 500 nM.

`Cn1nc(NS(C)(=O)=O)c2c(Cl)ccc(-n3c([C@H](Cc4cc(F)cc(F)c4)NC(=O)Cn4nc(C(F)F)c5c4C(F)(F)[C@@H]4C[C@H]54)nc4cc(-c5ccc(Cl)cc5Cl)ccc4c3=O)c21` (atropisomer, axis not shown; (aR)) [Example 63, N-((S)-1-(3-(4-chloro-1-methyl-3-(methylsulfonamido)-1H-indazol-7-yl)-7-(2,4-dichlorophenyl)-4-oxo-3,4-dihydroquinazolin-2-yl)-2-(3,5-difluorophenyl)ethyl)-2-((3bS,4aR)-3-(difluoromethyl)-5,5-difluoro-3b,4,4a,5-tetrahydro-1H-cyclopropa[3,4]cyclopenta[1,2-c]pyrazol-1-yl)acetamide]: the EC50 in data set [1] (setting [3]) was found to be 7 nM. Moreover, in data set [2], the 50% cytotoxic concentration (CC50) at 4 day was over 1000 nM.

In the case of `Cc1cc(F)ccc1-c1ccc2c(=O)n(-c3ccc(S(=O)(=O)N4CCOCC4)cc3)c([C@H](Cc3cc(F)cc(F)c3)NC(=O)Cn3nc(C(F)F)c4c3C(F)(F)[C@@H]3C[C@H]43)nc2c1` [Example 150, 2-((3bS,4aR)-3-(difluoromethyl)-5,5-difluoro-3b,4,4a,5-tetrahydro-1H-cyclopropa[3,4]cyclopenta[1,2-c]pyrazol-1-yl)-N-((S)-2-(3,5-difluorophenyl)-1-(7-(4-fluoro-2-methylphenyl)-3-(4-(morpholinosulfonyl)phenyl)-4-oxo-3,4-dihydroquinazolin-2-yl)ethyl)acetamide], in data set [1] (setting [3]), the half-maximal effective concentration (EC50) worked out at 11 nM. This compound showed a CC50 at 4 day in data set [2] of over 500 nM.

As for `CS(=O)(=O)Nc1nn(CC(F)F)c2c(-n3c([C@H](Cc4cc(F)cc(F)c4)NC(=O)Cn4nc(C(F)F)c5c4C(F)(F)[C@@H]4C[C@H]54)nc4cc(-c5ncccn5)ccc4c3=O)ccc(Cl)c12` (atropisomer, axis not shown; (aR)) [Example 124, N-((S)-1-(3-(4-chloro-1-(2,2-difluoroethyl)-3-(methylsulfonamido)-1H-indazol-7-yl)-4-oxo-7-(pyrimidin-2-yl)-3,4-dihydroquinazolin-2-yl)-2-(3,5-difluorophenyl)ethyl)-2-((3bS,4aR)-3-(difluoromethyl)-5,5-difluoro-3b,4,4a,5-tetrahydro-1H-cyclopropa[3,4]cyclopenta[1,2-c]pyrazol-1-yl)acetamide], in data set [1] (setting [3]), the EC50 is 0.058 nM. Further, in data set [2], the CC50 at 4 day is over 500 nM.

In the case of `Cc1ncc(-c2ccc3c(=O)n(-c4ccc(Cl)c5c(NS(C)(=O)=O)nn(CC(F)F)c45)c([C@H](Cc4cc(F)cc(F)c4)NC(=O)Cn4nc(C(F)F)c5c4C(F)(F)[C@@H]4C[C@H]54)nc3c2)cn1` [Example 174, N-((S)-1-(3-(4-chloro-1-(2,2-difluoroethyl)-3-(methylsulfonamido)-1H-indazol-7-yl)-7-(2-methylpyrimidin-5-yl)-4-oxo-3,4-dihydroquinazolin-2-yl)-2-(3,5-difluorophenyl)ethyl)-2-((3bS,4aR)-3-(difluoromethyl)-5,5-difluoro-3b,4,4a,5-tetrahydro-1H-cyclopropa[3,4]cyclopenta[1,2-c]pyrazol-1-yl)acetamide], the EC50 in data set [1] (setting [3]) turned out to be 0.033 nM. The compound further displayed a half-maximal cytotoxic concentration (CC50) at 4 day in data set [2] of over 500 nM.

With `Cc1cccc(C)c1-c1ccc2c(=O)n(-c3ccc(S(=O)(=O)N4CCOCC4)cc3)c([C@H](Cc3cc(F)cc(F)c3)NC(=O)Cn3nc(C(F)F)c4c3C(F)(F)[C@@H]3C[C@H]43)nc2c1` [Example 77, 2-((3bS,4aR)-3-(difluoromethyl)-5,5-difluoro-3b,4,4a,5-tetrahydro-1H-cyclopropa[3,4]cyclopenta[1,2-c]pyrazol-1-yl)-N-((S)-2-(3,5-difluorophenyl)-1-(7-(2,6-dimethylphenyl)-3-(4-(morpholinosulfonyl)phenyl)-4-oxo-3,4-dihydroquinazolin-2-yl)ethyl)acetamide], the concentration giving a half-maximal response (EC50) in data set [1] (setting [3]) was found to be 4.2 nM. The compound also showed a CC50 at 4 day in data set [2] of over 1000 nM.

As for `Cn1nc(NS(C)(=O)=O)c2c(Cl)ccc(-n3c([C@H](Cc4cc(F)cc(F)c4)NC(=O)Cn4nc(C(F)F)c5c4C(F)(F)[C@@H]4C[C@H]54)nc4cc(-c5cccc(F)c5F)ccc4c3=O)c21` (atropisomer, axis not shown; (aR)) [Example 68, N-((S)-1-(3-(4-chloro-1-methyl-3-(methylsulfonamido)-1H-indazol-7-yl)-7-(2,3-difluorophenyl)-4-oxo-3,4-dihydroquinazolin-2-yl)-2-(3,5-difluorophenyl)ethyl)-2-((3bS,4aR)-3-(difluoromethyl)-5,5-difluoro-3b,4,4a,5-tetrahydro-1H-cyclopropa[3,4]cyclopenta[1,2-c]pyrazol-1-yl)acetamide], in data set [1] (setting [3]), the EC50 worked out at 0.63 nM. The compound further returned a CC50 at 4 day in data set [2] of over 1000 nM.

Source of the values: patent publication US11505543B2, “4-oxo-3,4-dihydroquinazoline compounds as inhibitors of human immunodeficiency virus replication” (VIIV HEALTHCARE UK (NO.5) LIMITED, priority 2018, dated 2022).
